Results published in PubChem BioAssay (NCI).
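Tested at 5 concentrations; 48 h exposure; 96-well plates; endpoints linearly interpolated, else capped at highest concentration. GI50 marks 50% less growth. The concentration for full growth arrest is given as TGI.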

Columns and labels:
Assay in all cases: NCI tumour cell line growth inhibition, 48 h
DU-145 prostate = system: DU-145 prostate
SF-268 CNS = system: SF-268 CNS
IGROV1 ovarian = system: IGROV1 ovarian
HCT-116 colon = system: HCT-116 colon
HT29 colon = system: HT29 colon
SW-620 colon = system: SW-620 colon
RPMI-8226 leukemia = system: RPMI-8226 leukemia
OVCAR-5 ovarian = system: OVCAR-5 ovarian
A549 NSCLC = system: A549 NSCLC
BT-549 breast = system: BT-549 breast
UACC-62 melanoma = system: UACC-62 melanoma
OVCAR-4 ovarian = system: OVCAR-4 ovarian
COLO 205 colon = system: COLO 205 colon
MALME-3M melanoma = system: MALME-3M melanoma
HOP-92 NSCLC = system: HOP-92 NSCLC
RXF 393 renal = system: RXF 393 renal
NCI-H23 lung = system: NCI-H23 lung
NCI-H226 lung = system: NCI-H226 lung
UACC-257 melanoma = system: UACC-257 melanoma
K-562 leukemia = system: K-562 leukemia
OVCAR-8 ovarian = system: OVCAR-8 ovarian
MDA-N = system: MDA-N
EKVX NSCLC = system: EKVX NSCLC
SK-MEL-5 melanoma = system: SK-MEL-5 melanoma
SR leukemia = system: SR leukemia
SNB-19 CNS = system: SNB-19 CNS
KM12 colon = system: KM12 colon
T-47D breast = system: T-47D breast
HCT-15 colon = system: HCT-15 colon
HL-60(TB) leukemia = system: HL-60(TB) leukemia
NCI/ADR-RES ovarian = system: NCI/ADR-RES ovarian
SK-MEL-28 melanoma = system: SK-MEL-28 melanoma
UO-31 renal = system: UO-31 renal
M14 melanoma = system: M14 melanoma
A498 renal = system: A498 renal
SF-295 CNS = system: SF-295 CNS
NCI-H522 lung = system: NCI-H522 lung
786-0 renal = system: 786-0 renal
HOP-62 NSCLC = system: HOP-62 NSCLC
SK-OV-3 ovarian = system: SK-OV-3 ovarian
SK-MEL-2 melanoma = system: SK-MEL-2 melanoma
ACHN renal = system: ACHN renal
SN12C renal = system: SN12C renal
MCF7 breast = system: MCF7 breast
PC-3 prostate = system: PC-3 prostate
CAKI-1 renal = system: CAKI-1 renal
MDA-MB-435 = system: MDA-MB-435
MOLT-4 leukemia = system: MOLT-4 leukemia
OVCAR-3 ovarian = system: OVCAR-3 ovarian
LOX IMVI melanoma = system: LOX IMVI melanoma
HS 578T breast = system: HS 578T breast
TK-10 renal = system: TK-10 renal
U251 CNS = system: U251 CNS
MDA-MB-231 breast = system: MDA-MB-231 breast
NCI-H460 lung = system: NCI-H460 lung
CCRF-CEM leukemia = system: CCRF-CEM leukemia
SF-539 CNS = system: SF-539 CNS

Compound `O=C1[C@@H]2Cc3c([nH]c4ccccc34)C(C3CCCCC3)N2C(=O)[C@@H]2CCCN12` (stereo partly specified) has a TGI (DU-145 prostate) of over 100 µM, a TGI (SF-268 CNS) of over 100 µM and a TGI (IGROV1 ovarian) of over 100 µM. The TGI (HCT-116 colon) was 74.5 µM, the TGI (HT29 colon) was 73.4 µM and the TGI (SW-620 colon) was over 100 µM. For the same compound, the TGI (RPMI-8226 leukemia) was 51 µM, the TGI (OVCAR-5 ovarian) was over 100 µM and the TGI (A549 NSCLC) was over 100 µM. It also gave a TGI (BT-549 breast) of 88 µM, a TGI (UACC-62 melanoma) of 49 µM and a TGI (OVCAR-4 ovarian) of over 100 µM. The TGI (COLO 205 colon) was 42.9 µM, the TGI (MALME-3M melanoma) was 51.1 µM and the TGI (HOP-92 NSCLC) was 76.6 µM. For the same compound, the TGI (RXF 393 renal) was over 100 µM, the TGI (NCI-H23 lung) was over 100 µM and the TGI (NCI-H226 lung) was over 100 µM. The TGI (UACC-257 melanoma) was 80.7 µM, the TGI (K-562 leukemia) was over 100 µM and the TGI (OVCAR-8 ovarian) was over 100 µM. For the same compound, the TGI (MDA-N) was over 100 µM, the TGI (EKVX NSCLC) was over 100 µM and the TGI (SK-MEL-5 melanoma) was 35.7 µM. It also gave a TGI (SR leukemia) of 46.8 µM, a TGI (SNB-19 CNS) of over 100 µM and a TGI (KM12 colon) of 58.4 µM. For the same compound, the TGI (T-47D breast) was over 100 µM, the TGI (HCT-15 colon) was over 100 µM and the TGI (HL-60(TB) leukemia) was 59.2 µM. For the same compound, the TGI (NCI/ADR-RES ovarian) was 78.7 µM, the TGI (SK-MEL-28 melanoma) was over 100 µM and the TGI (UO-31 renal) was over 100 µM. For the same compound, the TGI (M14 melanoma) was over 100 µM, the TGI (A498 renal) was over 100 µM and the TGI (SF-295 CNS) was 61.1 µM. It also gave a TGI (NCI-H522 lung) of 63.1 µM, a TGI (786-0 renal) of 75.9 µM and a TGI (HOP-62 NSCLC) of over 100 µM. It also gave a TGI (SK-OV-3 ovarian) of over 100 µM, a TGI (SK-MEL-2 melanoma) of 39.7 µM and a TGI (ACHN renal) of over 100 µM. For the same compound, the TGI (SN12C renal) was 63.4 µM, the TGI (MCF7 breast) was over 100 µM and the TGI (PC-3 prostate) was 60.6 µM. For the same compound, the TGI (CAKI-1 renal) was 80.8 µM, the TGI (MDA-MB-435) was over 100 µM and the TGI (MOLT-4 leukemia) was 57 µM. For the same compound, the TGI (OVCAR-3 ovarian) was 51.7 µM, the TGI (LOX IMVI melanoma) was 73.9 µM and the TGI (HS 578T breast) was 68.7 µM. For the same compound, the TGI (TK-10 renal) was over 100 µM, the TGI (U251 CNS) was over 100 µM and the TGI (MDA-MB-231 breast) was 50.2 µM.

With `CC(=O)Oc1cc(C)ccc1[C@]1(C)CC[C@H](C)/C1=C\Br` the GI50 (DU-145 prostate) was 4.87 µM, the TGI (DU-145 prostate) was 16.9 µM and the GI50 (SF-268 CNS) was 4.76 µM. It also gave a TGI (SF-268 CNS) of 17.9 µM, a GI50 (NCI-H460 lung) of 4.17 µM and a TGI (NCI-H460 lung) of 15.2 µM. It also gave a GI50 (CCRF-CEM leukemia) of 2.75 µM, a TGI (CCRF-CEM leukemia) of 10.1 µM and a GI50 (IGROV1 ovarian) of 7.6 µM. The TGI (IGROV1 ovarian) was 26.6 µM, the GI50 (HCT-116 colon) was 4.44 µM and the TGI (HCT-116 colon) was 18.8 µM. The GI50 (HT29 colon) was 2.45 µM, the TGI (HT29 colon) was 5.06 µM and the GI50 (SW-620 colon) was 5.31 µM. It also gave a TGI (SW-620 colon) of 17.1 µM, a GI50 (RPMI-8226 leukemia) of 2.71 µM and a TGI (RPMI-8226 leukemia) of 8.09 µM. For the same compound, the GI50 (OVCAR-5 ovarian) was 6.9 µM, the TGI (OVCAR-5 ovarian) was 19.5 µM and the GI50 (A549 NSCLC) was 4.98 µM. For the same compound, the TGI (A549 NSCLC) was 17.3 µM, the GI50 (BT-549 breast) was 4.1 µM and the TGI (BT-549 breast) was 17.6 µM. It also gave a GI50 (UACC-62 melanoma) of 5.98 µM, a TGI (UACC-62 melanoma) of 19.7 µM and a GI50 (OVCAR-4 ovarian) of 2.87 µM. For the same compound, the TGI (OVCAR-4 ovarian) was 12.6 µM, the GI50 (COLO 205 colon) was 2.3 µM and the TGI (COLO 205 colon) was 5.33 µM. It also gave a GI50 (MALME-3M melanoma) of 2.95 µM, a TGI (MALME-3M melanoma) of 10.2 µM and a GI50 (HOP-92 NSCLC) of 2.03 µM. The TGI (HOP-92 NSCLC) was 12.9 µM, the GI50 (RXF 393 renal) was 3.86 µM and the TGI (RXF 393 renal) was 15.9 µM. It also gave a GI50 (NCI-H23 lung) of 6.54 µM, a TGI (NCI-H23 lung) of 20.3 µM and a GI50 (UACC-257 melanoma) of 8.28 µM. For the same compound, the TGI (UACC-257 melanoma) was 20.8 µM, the GI50 (K-562 leukemia) was 3.71 µM and the TGI (K-562 leukemia) was 11.4 µM. For the same compound, the GI50 (OVCAR-8 ovarian) was 5.05 µM, the TGI (OVCAR-8 ovarian) was 21 µM and the GI50 (MDA-N) was 2.36 µM. It also gave a TGI (MDA-N) of 7.16 µM, a GI50 (EKVX NSCLC) of 6.67 µM and a TGI (EKVX NSCLC) of 18.5 µM. The GI50 (SK-MEL-5 melanoma) was 3.32 µM, the TGI (SK-MEL-5 melanoma) was 11.5 µM and the GI50 (SR leukemia) was 2.72 µM. For the same compound, the TGI (SR leukemia) was 12.8 µM, the GI50 (SNB-19 CNS) was 3.97 µM and the TGI (SNB-19 CNS) was 17.4 µM. It also gave a GI50 (KM12 colon) of 2.92 µM, a TGI (KM12 colon) of 12 µM and a GI50 (T-47D breast) of 5.38 µM. The TGI (T-47D breast) was 23.4 µM, the GI50 (HCT-15 colon) was 4.51 µM and the TGI (HCT-15 colon) was 19.2 µM. For the same compound, the GI50 (HL-60(TB) leukemia) was 3.41 µM, the TGI (HL-60(TB) leukemia) was 15 µM and the GI50 (NCI/ADR-RES ovarian) was 2.68 µM. For the same compound, the TGI (NCI/ADR-RES ovarian) was 7.94 µM, the GI50 (SK-MEL-28 melanoma) was 3.62 µM and the TGI (SK-MEL-28 melanoma) was 15.6 µM. It also gave a GI50 (UO-31 renal) of 8.43 µM, a TGI (UO-31 renal) of 34 µM and a GI50 (M14 melanoma) of 6.31 µM. It also gave a TGI (M14 melanoma) of 19.6 µM, a GI50 (A498 renal) of 5.2 µM and a TGI (A498 renal) of 17.1 µM. The GI50 (SF-295 CNS) was 3.96 µM, the TGI (SF-295 CNS) was 13.2 µM and the GI50 (NCI-H522 lung) was 5.28 µM. It also gave a TGI (NCI-H522 lung) of 22.7 µM, a GI50 (SF-539 CNS) of 2.32 µM and a TGI (SF-539 CNS) of 5.1 µM. It also gave a GI50 (786-0 renal) of 4.09 µM, a TGI (786-0 renal) of 14.3 µM and a GI50 (HOP-62 NSCLC) of 9.22 µM. It also gave a TGI (HOP-62 NSCLC) of 22.2 µM, a GI50 (SK-OV-3 ovarian) of 2.43 µM and a TGI (SK-OV-3 ovarian) of 7.65 µM. The GI50 (SK-MEL-2 melanoma) was 7.21 µM, the TGI (SK-MEL-2 melanoma) was 24.7 µM and the GI50 (ACHN renal) was 5.7 µM. It also gave a TGI (ACHN renal) of 20.1 µM, a GI50 (SN12C renal) of 9.24 µM and a TGI (SN12C renal) of 25.3 µM. It also gave a GI50 (MCF7 breast) of 4.07 µM, a TGI (MCF7 breast) of 15.3 µM and a GI50 (PC-3 prostate) of 3.33 µM. It also gave a TGI (PC-3 prostate) of 12.3 µM, a GI50 (CAKI-1 renal) of 3.53 µM and a TGI (CAKI-1 renal) of 14.3 µM. The GI50 (MDA-MB-435) was 1.49 µM, the TGI (MDA-MB-435) was 3.89 µM and the GI50 (MOLT-4 leukemia) was 5.22 µM. For the same compound, the TGI (MOLT-4 leukemia) was 22.8 µM, the GI50 (OVCAR-3 ovarian) was 2.61 µM and the TGI (OVCAR-3 ovarian) was 7.16 µM. It also gave a GI50 (LOX IMVI melanoma) of 4.77 µM, a TGI (LOX IMVI melanoma) of 17.1 µM and a GI50 (HS 578T breast) of 3.03 µM. It also gave a TGI (HS 578T breast) of 13.9 µM, a GI50 (TK-10 renal) of 3.6 µM and a TGI (TK-10 renal) of 12.5 µM. It also gave a GI50 (U251 CNS) of 4.92 µM, a TGI (U251 CNS) of 16.6 µM and a GI50 (MDA-MB-231 breast) of 9.04 µM. For the same compound, the TGI (MDA-MB-231 breast) was 23.9 µM.
